System: spinal cord dorsal horn (L4) neuronal oscillation
Assay: Spinal cord dorsal horn LFP/PSD recording after intradermal capsaicin injection (model of acute pain)
Format: in vivo, rat
Conditions: anesthetized rats, FIG. 1B
Protocol: FIG. 1A is a schematic showing electrode placement in the spinal cord dorsal horn (L4) for the recoding of local field potential (LFP) from anesthetized rats (n=3 rats/group).
Experiments were conducted on anesthetized Sprague Dawley rats (200-250 g). […] LFP was sampled at a high frequency (25,000 Hz) and down-sampled offline to 250 Hz.
Natural sensory stimuli (e.g. brush and pinch) and intradermal injections of capsaicin were applied to the receptive field in the hindpaw corresponding to the recording site in the spinal cord. […] PSD plots the distribution of the power amplitude of a waveform as a function of frequency. Spontaneous oscillation in the spinal cord dorsal horn was enhanced compared to baseline LFP recording in response to capsaicin injection in the ipsilateral foot within physiologically relevant frequency bands, e.g., theta and alpha, oscillated at baseline. […] Thus, oscillation was normalized with systemic administration of an analgesic compound.

Structure (SMILES) | Spontaneous oscillation in the spinal cord dorsal horn (PSD) compared to baseline LFP recording (intradermal 5% capsaicin injection in the ipsilateral foot, theta and alpha bands) | Effect on capsaicin-enhanced PSD normalized to baseline (ibuprofen 400 mg/Kg intraperitoneally, after intradermal 5% capsaicin, n=3 rats/group)
COc1cc(CNC(=O)CCCC/C=C/C(C)C)ccc1O [capsaicin] | enhanced | –
CC(C)Cc1ccc(C(C)C(=O)O)cc1 (centres unmarked) [ibuprofen] | – | mitigation of the enhanced PSD
